Assays:
FB1 Hydrolase activity = experiment: Effect of various treatments on modification of FB1 by E. spinifera esterase (culture filtrates); type: biochemical, Exophiala spinifera; parameters: key: − = no hydrolysis; ± = trace amount of hydrolysis; + = incomplete hydrolysis; ++ = incomplete hydrolysis; +++ = complete hydrolysis; conditions: then incubated with FB1 overnight at 37° C.
Description: (§1) Analytical thin-layer chromatography was carried out on 100% silanized C18 silica plates (Sigma #T-7020; 10×10 cm; 0.1 mm thick) by a modification of the published method of Rottinghaus (Rottinghaus, G. E., Coatney, C. E., and Minor, H. C., A rapid, sensitive thin layer chromatography procedure for the detection of fumonisin b-1 and b-2, J Vet Diagn Invest, 4, 326 (1992), and herein incorporated by reference).
(§2) Sample lanes were pre-wet with methanol to facilitate sample application. After application of from 0.1 to 2 μl of aqueous sample, the plates were air-dried and developed in MeOH:4% KCl (3:2) or MeOH:0.2 M KOH (3:2) and then sprayed successively with 0.1 M sodium borate (pH 9.5) and fluorescamine (0.4 mg/ml in acetonitrile). Plates were air-dried and viewed under long wave UV.
The esterase isolated from E. spinifera was then subjected to other treatments, including proteases, to determine whether and how the enzyme would function in various environments.

AP1 catabolase = AP1 catabolase activity: modification of amine-containing substrates by crude cell-free extract; type: biochemical, Exophiala spinifera; conditions: for modification by the crude extract (catabolase): cell-free extract of substrate-induced Exophiala spinifera, TLC on C18 silica
Description: A cell-free extract that contains the catabolase activity was obtained by subjecting substrate-induced Exophiala spinifera cells to disruption using a bead beater in sodium acetate buffer, pH 5.2, and recovering the cell-free supernatant by centrifugation and 0.45 micron filtration. Catabolic activity is assayed by incubating extracts with AP1 (hydrolyzed fumonisin B1 backbone) or 14C-labelled AP1 with the extract and evaluating by TLC on C18 silica. The product AP1-N1 has a lower Rf than AP1 and is detected either by radiolabel scan or by H2SO4 spray/charring of the TLC plate. […] Other amine-containing substrates were tested for modification by the crude extract.

maize coleoptiles = experiment: Effect of FB1 and AP1 on maize coleoptiles; parameters: key to Injury of maize coleoptiles: + = brown necrotic discoloration of coleoptile; − = no symptoms (same as water control); conditions: for Injury of maize coleoptiles: 2 days dark at 28° C. then 3 days light
Description: Maize coleoptiles from 4 day dark-grown germinated maize seeds were excised above the growing point and placed in 96-well microtiter plates in the presence of 60 microliters of sterile distilled water containing FB1 or AP1 at approximately equimolar concentrations of 1.5, 0.5, 0.15, 0.05, 0.015, 0.005, 0.0015, or 0.0005 millimolar, along with water controls. After 2 days in the dark at 28° C. the coleoptiles were placed in the light and incubated another 3 days.

maize callus = conditions: solid medium; Van Asch et al. 1992; cited from earlier work
[1] = tested on: maize tissue cultured cells (Black Mexican Sweet, BMS); conditions: for concentration at which growth of BMS cells was inhibited: liquid culture, 96-well plates, 1 week, cell density versus water control
[2] = Hydrolysis of fumonisin B1 by commercial esterases and hydrolases; type: biochemical; parameters: key: − = no hydrolysis; ± = trace amount of hydrolysis; + = incomplete hydrolysis; ++ = incomplete hydrolysis; +++ = complete hydrolysis; conditions: assay pH 8.0; overnight at 37° C. with 1 mg/ml fumonisin
Description: as §1, §2
The fumonisin esterase isolated from E. spinifera and R. atrovirens was compared with other known esterases from various sources as supplied by commercial vendors.

Lemna tissues = conditions: Vesonder et al. 1992; cited from earlier work
tomato = conditions: Lamprecht et al. 1994; cited from earlier work
[3] = treatment 0.01 mg/ml, 16 hr, 37° C., pH 5.2

Compound: O[C@@H](CS)[C@@H](O)CS [DTT]
- FB1 Hydrolase activity (FB1 Hydrolase activity; treatment 25 mM): +++

Compound: CCCCCCCCCCCCCC[C@@H](O)[C@@H](O)[C@@H](N)CO [Phytosphingosine]
- modification by the crude extract (catabolase) (AP1 catabolase): apparently not modified

Compound: [Ca+2] [Ca^++]
- FB1 Hydrolase activity (FB1 Hydrolase activity; treatment 50 mM): +++

Compound: Chymotrypsin
- FB1 Hydrolase activity (FB1 Hydrolase activity; [3]): ++

Compound: CCCCCCCCCCCCCCC[C@@H](O)[C@@H](N)CO [sphinganine]
- modification by the crude extract (catabolase) (AP1 catabolase): apparently not modified

Compound: O=C(O)CN(CCN(CC(=O)O)CC(=O)O)CC(=O)O [EDTA]
- FB1 Hydrolase activity (FB1 Hydrolase activity; treatment 50 mM): ++

Compound: [Mg+2] [Mg^++]
- FB1 Hydrolase activity (FB1 Hydrolase activity; treatment 50 mM): +++

Compound: CCCC[C@@H](C)[C@@H](OC(=O)C[C@@H](CC(=O)O)C(=O)O)[C@H](C[C@@H](C)C[C@H](O)CCCC[C@@H](O)C[C@H](O)[C@H](C)N)OC(=O)C[C@@H](CC(=O)O)C(=O)O [FB1, Fumonisin B1]
- Injury of maize coleoptiles (maize coleoptiles; 1.5 mM): +
- Injury of maize coleoptiles (maize coleoptiles; .0005 mM): −
- Injury of maize coleoptiles (maize coleoptiles; .0015 mM): −
- Injury of maize coleoptiles (maize coleoptiles; .005 mM): −
- Injury of maize coleoptiles (maize coleoptiles; .05 mM): +
- Injury of maize coleoptiles (maize coleoptiles; .15 mM): +
- Injury of maize coleoptiles (maize coleoptiles; .5 mM): +
- modification by the crude extract (catabolase) (AP1 catabolase): not modified
- concentration giving significant inhibition of maize callus (maize callus): 1400 nM
- concentration at which growth of BMS cells was inhibited [1]: 400 nM

Compound: CCCCCCCCCCCCC/C=C/[C@@H](O)[C@@H](N)CO [Sphingosine]
- modification by the crude extract (catabolase) (AP1 catabolase): apparently not modified

Compound: Cholinesterase, butyryl: EC 3.1.1.8, Horse serum, highly purified
- FB1 hydrolysis [2]: −

Compound: CCCC[C@@H](C)[C@@H](O)[C@@H](O)C[C@@H](C)C[C@H](O)CCCC[C@@H](O)C[C@H](O)[C@H](C)N [AP1]
- Injury of maize coleoptiles (maize coleoptiles; 1.5 mM): +
- Injury of maize coleoptiles (maize coleoptiles; .0005 mM): −
- Injury of maize coleoptiles (maize coleoptiles; .0015 mM): −
- Injury of maize coleoptiles (maize coleoptiles; .005 mM): −
- Injury of maize coleoptiles (maize coleoptiles; .015 mM): −
- Injury of maize coleoptiles (maize coleoptiles; .05 mM): −
- Injury of maize coleoptiles (maize coleoptiles; .15 mM): −
- Injury of maize coleoptiles (maize coleoptiles; .5 mM): −
- difference in toxicity between FB1 and AP1 to maize coleoptiles (maize coleoptiles; AP1 less toxic than FB1): ≥ 30 fold
- time to complete conversion to AP1-N1 (AP1 catabolase; pH 9): 30 min
- AP1 less toxic (than FB1) in Lemna tissues (Lemna tissues): approx. 40 fold
- reduction in toxicity to tomato by AP1 versus FB1 (tomato): ~100 fold
- difference in toxicity (FB1 versus AP1) to maize tissue cultured cells [1]: ~100 fold
- concentration at which growth of BMS cells was inhibited [1]: 40000 nM

Compound: Trypsin
- FB1 Hydrolase activity (FB1 Hydrolase activity; [3]): +++

Compound: O=S(=O)(F)Cc1ccccc1 [PMSF, Phenylmethyl sulfonyl fluoride]
- FB1 Hydrolase activity (FB1 Hydrolase activity; treatment 10 mM): +++

Source: patent US6670189B2, “Fumonisin detoxification compositions and methods” (priority 1994, dated 2003)
